Assay [1] deals with HepG2. The assay is described as follows: Anticancer activity against human HepG2 cells assessed as cell growth inhibition measured after 48 hrs by MTT assay. The assay is classed as functional, cell-based. Particulars: HepG2, 48 h. (Tetrazolium assays rely on reduction of a dye to a coloured formazan, in cell work by metabolically active cells.)
In a further assay the test system is PC-3. The assay is described as follows: Anticancer activity against human PC-3 cells assessed as cell growth inhibition measured after 48 hrs by MTT assay. The assay is classed as functional, cell-based. The conditions noted are these: PC-3, 48 h.
The next assay deals with HCT-116. The assay is described as follows: Anticancer activity against human HCT-116 cells assessed as cell growth inhibition measured after 48 hrs by MTT assay. The conditions noted are these: HCT-116, 48 h. The assay is classed as functional, cell-based.
For assay [2], the system named is HepG2. The assay is described as follows: Anticancer activity against human HepG2 cells assessed as cell growth inhibition at 100 uM by MTT assay relative to control. It is filed as functional.
Assay [3] has as its system MCF7. The assay is described as follows: Anticancer activity against human MCF7 cells assessed as cell growth inhibition at 100 uM by MTT assay relative to control. It is filed as functional.
The next assay concerns A549. The assay is described as follows: Anticancer activity against human A549 cells assessed as cell growth inhibition at 100 uM by MTT assay relative to control. It is filed as functional.
The next assay deals with A-431. The assay is described as follows: Anticancer activity against human A-431 cells assessed as cell growth inhibition at 100 uM by MTT assay relative to control. The assay is classed as functional.
Assay [4] deals with MCF7. The assay is described as follows: Anticancer activity against human MCF7 cells assessed as cell growth inhibition measured after 48 hrs by MTT assay. It is filed as functional, cell-based. The conditions noted are these: MCF7, 48 h.
The next assay has as its system FaDu. The assay is described as follows: Anticancer activity against human FaDu cells assessed as cell growth inhibition. The assay is classed as functional, cell-based.

As usually defined, the IC50 is the concentration at which inhibition is half-maximal. Broadly, the inhibition is the share of the control response that was lost under treatment.

As to `O=C(/C=C/c1ccc(F)cc1)[C@H]1[C@H](c2ccc(F)cc2)[C@H]2CSCN2[C@]12C(=O)Nc1ccc(Br)cc12`, the IC50 with HepG2 [1] was 0.8 µM; in the assay with PC-3, not below 0.8 µM.

As for `O=C(/C=C/c1ccco1)[C@H]1[C@H](c2ccco2)[C@H]2CSCN2[C@]12C(=O)Nc1ccccc12`, the IC50 is not below 1.5 µM in the assay with HepG2 [1], 1.57 µM with HCT-116 and not below 0.8 µM with PC-3.

As to `CCCCCCCC/C=C\CC(=O)N1CC[C@@H](COP(=O)([O-])OCC[N+](C)(C)C)C1`, the inhibition at 100 µM stood at 72.8% in the assay on HepG2 [2], 92.9% in the assay with MCF7 [3], 58.7% in the assay on A549 and 67.3% in the assay with A-431.

With `CCCCCCCCCCCCCCCC(=O)N1CCC[C@@H]1OP(=O)([O-])OCC[N+](C)(C)C`, the inhibition at 100 µM in the assay on HepG2 [2] amounted to 10.1%; in the assay on MCF7 [3] it was 22.6%; in the assay with A549, 4.7%; with A-431, 0.3%.

Regarding `CCCCCCCCCCCCCCCC(=O)N1CC[C@@H](OP(=O)([O-])OCC[N+](C)(C)C)C1`, the inhibition at 100 µM in the assay on HepG2 [2] stood at 10.1%; in the assay on MCF7 [3], 22.6%; in the assay on A549, 4.7%; in the assay with A-431 it was 0.3%.

In the case of `CCCCCC/C=C\CCCCCCCC(=O)N1CCC[C@H]1OP(=O)([O-])OCC[N+](C)(C)C`, the inhibition at 100 µM with HepG2 [2] came out at 10.1%; in the assay on MCF7 [3], 22.6%; in the assay on A549, 4.7%; in the assay with A-431, 0.3%.

In the case of `O=C(/C=C/c1ccc(C(F)(F)F)cc1)[C@H]1[C@H](c2ccc(C(F)(F)F)cc2)[C@H]2CSCN2[C@]12C(=O)Nc1ccccc12`, the results for the IC50 with HepG2 [1] and with PC-3 were not below 1.5 µM and 1 µM, respectively.

For `Cc1ccc([C@@H]2[C@H]3CSCN3[C@]3(C(=O)Nc4ccccc43)[C@H]2C(=O)/C=C/c2ccccc2)cc1`, the IC50 with HepG2 [1] is not below 1.5 µM; with HCT-116 it was 1.57 µM; in the assay with PC-3, not below 0.8 µM.

As to `O=C(/C=C/c1c(Cl)cccc1Cl)[C@H]1[C@H](c2c(Cl)cccc2Cl)[C@H]2CSCN2[C@]12C(=O)Nc1ccccc12`, the IC50 was not below 1.5 µM in the assay on HepG2 [1], 1.57 µM with HCT-116 and not below 0.8 µM with PC-3.

In the case of `O=C(/C=C/c1cccc([N+](=O)[O-])c1)[C@H]1[C@H](c2cccc([N+](=O)[O-])c2)C2CSCN2C12C(=O)Nc1c(Br)cc(Br)cc12` (stereo partly specified), the IC50 with MCF7 [4] is 4 µM; with HepG2 [1] it was 5 µM; with HCT-116 it was 2.8 µM.

As for `Cc1ccc(/C=C/C(=O)[C@H]2[C@H](c3ccc(C)cc3)[C@H]3CSCN3[C@]23C(=O)Nc2ccccc23)cc1`, the IC50 with HepG2 [1] is not below 1.5 µM; in the assay on HCT-116, 1.57 µM; in the assay on PC-3, not below 0.8 µM.

As to `Cc1ccc(S(=O)(=O)N2CCCC2C(=O)Nc2ccc3c(C)cc(=O)oc3c2)cc1` (single isomer, unassigned), in the assay with MCF7 [4], the concentration for half-maximal inhibition (IC50) was found to be 1.07 µM.

As for `COc1ccc(/C=C/C(=O)[C@H]2[C@H](c3ccc(OC)cc3)[C@H]3CSCN3[C@]23C(=O)Nc2ccccc23)cc1`, the IC50 was not below 1.5 µM in the assay on HepG2 [1], 1.57 µM in the assay with HCT-116 and not below 0.8 µM with PC-3.

In the case of `O=C(/C=C/c1ccc(F)cc1)[C@H]1[C@H](c2ccc(F)cc2)[C@H]2CSCN2[C@]12C(=O)Nc1ccc(Cl)cc12`, the half-maximal inhibitory concentration (IC50) in the assay with HepG2 [1] was not below 1.5 µM; in the assay on HCT-116, 1.57 µM; with PC-3, not below 0.8 µM.

`O=C(/C=C/c1cccc(Br)c1)[C@H]1[C@H](c2cccc(Br)c2)C2CSCN2C12C(=O)Nc1c(Br)cc(Br)cc12` (stereo partly specified): the IC50 in the assay on HCT-116 was less than 3 µM.

Take `O=C(/C=C/c1ccc(Br)cc1)[C@H]1[C@H](c2ccc(Br)cc2)[C@H]2CSCN2[C@]12C(=O)Nc1ccccc12`: the results for the IC50 with HepG2 [1], in the assay with HCT-116 and in the assay on PC-3 were 0.8 µM, 3 µM and not below 0.8 µM, respectively.

Take `O=C(/C=C/c1ccc(Cl)cc1)[C@H]1[C@H](c2ccc(Cl)cc2)C2CSCN2C12C(=O)Nc1c(Br)cc(Br)cc12` (stereo partly specified): the IC50 in the assay with HCT-116 is less than 3 µM.

As for `O=C(/C=C/c1ccc(F)cc1)[C@H]1[C@H](c2ccc(F)cc2)C2CSCN2C12C(=O)Nc1c(Br)cc(Br)cc12` (stereo partly specified), the IC50 in the assay on MCF7 [4] is 2.5 µg/mL; in the assay on HepG2 [1], not below 0.8 µM; in the assay on HCT-116 it was 1.57 µg/mL.

Turning to `O=C1Nc2ccccc2[C@@]12N[C@H](Cc1c[nH]c3ccccc13)[C@@H]([N+](=O)[O-])[C@@H]2c1cccc([N+](=O)[O-])c1`, the IC50 in the assay on FaDu was not below 30 µM.

Consider `O=C(/C=C/c1cccs1)[C@H]1[C@H](c2cccs2)[C@H]2CSCN2[C@]12C(=O)Nc1ccccc12`, for which the IC50 was not below 1.5 µM in the assay with HepG2 [1], 1.57 µM in the assay on HCT-116 and not below 0.8 µM in the assay with PC-3.

As to `O=C(/C=C/c1ccc2ccccc2c1)[C@H]1[C@H](c2ccc3ccccc3c2)[C@H]2CSCN2[C@]12C(=O)Nc1ccccc12`, the IC50 in the assay on HepG2 [1] was not below 1.5 µM; in the assay with HCT-116, 1.57 µM; in the assay with PC-3, not below 0.8 µM.

For the compound `Cc1ccc(/C=C/C(=O)[C@H]2[C@H](c3ccc(C)cc3)C3CSCN3C23C(=O)Nc2c(Br)cc(Br)cc23)cc1` (stereo partly specified), the IC50 is 2.5 µg/mL in the assay with MCF7 [4], not below 0.8 µM in the assay on HepG2 [1] and 1.57 µg/mL with HCT-116.

For `O=C1Nc2ccc(OC(F)(F)F)cc2[C@@]12N[C@H](Cc1c[nH]cn1)[C@@H]([N+](=O)[O-])[C@@H]2c1cccc([N+](=O)[O-])c1`, in the assay on FaDu, the IC50 was not below 30 µM.

As to `O=C1Nc2ccccc2[C@@]12N[C@H](Cc1c[nH]c3ccccc13)[C@@H]([N+](=O)[O-])[C@@H]2c1ccccc1`, the IC50 in the assay with FaDu came to 30 µM.

In the case of `O=C(/C=C/c1ccc(F)cc1)[C@H]1[C@H](c2ccc(F)cc2)[C@H]2CSCN2[C@]12C(=O)Nc1ccccc12`, the results for the IC50 with HepG2 [1], in the assay on HCT-116 and in the assay with PC-3 were not below 1.5 µM, 1.57 µM and not below 0.8 µM, respectively.

`O=C1Nc2ccc(OC(F)(F)F)cc2[C@@]12N[C@H](Cc1c[nH]cn1)[C@@H]([N+](=O)[O-])[C@@H]2c1ccc(Cl)cc1`: the IC50 with FaDu is not below 30 µM.

For the compound `CCCCCCCCCCCCCCCCOP(=O)([O-])OCC[N+](C)(C)C` [MILTEFOSINE], the inhibition at 100 µM in the assay on HepG2 [2] came to 31.3%; in the assay on MCF7 [3], 69.4%; in the assay with A-431, 35.4%.

For `Cc1ccc([C@H]2[C@H]([N+](=O)[O-])[C@@H](Cc3c[nH]cn3)N[C@]23C(=O)Nc2ccc(OC(F)(F)F)cc23)cc1`, in the assay with FaDu, the IC50 is not below 30 µM.

Take `O=C1Nc2ccccc2[C@@]12N[C@H](Cc1c[nH]c3ccccc13)[C@@H]([N+](=O)[O-])[C@@H]2c1ccccc1Cl`: the IC50 in the assay with FaDu is not below 30 µM.

As for `O=C(/C=C/c1ccco1)[C@H]1[C@H](c2ccco2)C2CSCN2C12C(=O)Nc1c(Br)cc(Br)cc12` (stereo partly specified), the concentration for half-maximal inhibition (IC50) in the assay with MCF7 [4] is 2.5 µg/mL; with HepG2 [1], not below 0.8 µM; with HCT-116 it was 1.57 µg/mL.

For the compound `COc1ccc([C@H]2[C@H]([N+](=O)[O-])[C@@H](Cc3c[nH]cn3)N[C@]23C(=O)Nc2ccc(OC(F)(F)F)cc23)cc1`, in the assay with FaDu, the IC50 was not below 30 µM.

With `O=C(/C=C/c1ccc(Br)cc1)[C@H]1[C@H](c2ccc(Br)cc2)C2CSCN2C12C(=O)Nc1c(Br)cc(Br)cc12` (stereo partly specified), the results for the IC50 in the assay on MCF7 [4] and with HCT-116 were 2.5 µM and 2.2 µM, respectively.

Take `Cc1ccc([C@H]2[C@H]([N+](=O)[O-])[C@@H](Cc3c[nH]cn3)N[C@]23C(=O)Nc2ccccc23)cc1`: the IC50 in the assay on FaDu was not below 30 µM.

For the compound `O=C(/C=C/c1cccc(Br)c1)[C@H]1[C@H](c2cccc(Br)c2)[C@H]2CSCN2[C@]12C(=O)Nc1ccccc12`, the results for the IC50 in the assay on HepG2 [1], in the assay with HCT-116 and in the assay on PC-3 were not below 1.5 µM, 1.57 µM and not below 0.8 µM, respectively.

Values taken from ChEMBL document CHEMBL5360530, “Structure activity relationship (SAR) and anticancer activity of pyrrolidine derivatives: Recent developments and future prospects (A review)” (Eur J Med Chem, 2023).
